Test results published in PMC10986512 (Microbiology Spectrum, 2024).
In brackets after ≈: the same amount, converted by molar mass. Several values for one entry are separate records, joined by “and”; a condition that tells them apart may be missing. Equal values may be shown once. Read-outs that look alike come from different tables or passages of the source.

How the values were obtained:
[1] = system: VACV; assay: microbe, parasite or virus in culture; assay type: cell-based, vaccinia virus (Western Reserve strain); details: for EC50: Orthopoxvirus vaccinia
[2] = system: RPXV; assay: microbe, parasite or virus in culture; assay type: cell-based; details: Rabbitpox virus, RAW264.7
[3] = system: CPXV; assay: microbe, parasite or virus in culture; assay type: cell-based, cowpox virus (Brighton Red strain); details: Cowpox virus
[4] = system: VACV; assay type: in vivo, BALB/c mice; details: 21 days
[5] = system: VACV; parameters: species or system BALB/c mice; details: mouse, in vivo
[6] = system: VACV; parameters: species or system BALB/c mice; details: mouse, in vivo; remark: listed apart in the source
[7] = system: NS5B-mediated replication of hepatitis C virus RNA; details: cited from earlier work
[8] = in vivo; details: C57BL/6, mouse
[9] = in vitro; details: mouse, plasma
[10] = physchem; details: pH 7.4, aqueous buffer
[11] = rat, in vivo; cited from earlier work
[12] = dog, in vivo; cited from earlier work
[13] = system: MPXV; assay type: cell-based, Mpox virus (West African clade US2003, clade IIa)
[14] = in vitro

SMILES: C[C@@]1(O)[C@H](O)[C@@H](CO)O[C@H]1n1cc(F)c2c(N)ncnc21 [UMM-766, 7-fluoro-7-deaza-2′-C-methyladenosine]
- EC50 and EC90 in MRC5 cells relative to RAW cells [1]: 3- to 15 fold
- EC50 [1]: < 1000 nM
- EC50 [2]: < 1000 nM
- EC50 [3]: 2.17 µM
- EC50 ([3]; MRC5): 8.09 µM
- survival [4]: 66.7% and 80% and 100%
- animals that met euthanasia criteria or died [5]: two
- maximum percentage weight change [5]: −30.5% and −29.3% and −24.4%
- median survival [5]: 8 days
- IHC labeling in nasal cavity/turbinates [6]: minimal or absent labeling
- hemorrhage in the olfactory bulb [6]: completely absent
- meningeal necrosis in the olfactory bulb [6]: absent in two 3-mg/kg animals and two 10-mg/kg animals
- necrosis of the olfactory epithelium (nasal cavity, H&E) [6]: two animals having minimal necrosis and two with moderate necrosis
- severity of IHC labeling in nasal cavity/turbinates [6]: markedly reduced
- severity/degree of IHC labeling in the lung [6]: mostly mild
- IHC labeling in nasal cavity/turbinates ([6]; 10 mg/kg): labeling was absent
- effect on NS5B-mediated replication of hepatitis C virus RNA [7]: decrease NS5B-mediated replication of hepatitis C virus RNA by chain termination
- bioavailability [8]: 48.8%
- clearance [8]: 154 mL/min/kg
- half-life [8]: 174 min
- fraction unbound [9]: 0.844
- solubility [10]: 3300 µg/mL (≈ 11.1 mM)
- highest tolerable dose [11]: 10 mg/kg
- highest tolerable dose [12]: 10 mg/kg

SMILES: O=C(NN1C(=O)[C@@H]2[C@@H]3C=C[C@@H]([C@H]4C[C@@H]34)[C@@H]2C1=O)c1ccc(C(F)(F)F)cc1 [ST-246]
- SI [1]: >750 and >666.7
- EC50 [1]: 1 to 10 nM
- SI [13]: >2189.8
- CC50 [14]: > 30 µM
